Consider three compounds from patent US8050868B2, “Methods for determining the organization of a cellular component of interest” (Cellomics, Inc., priority 2001, dated 2011).

The test system of experiment [1] is 3T3 cells. In words: Quantitative determination of microtubule polymer content (perinuclear ring mask, anti-tubulin immunofluorescence). Conditions: two-hour treatment. Format: cell-based. The procedure:
(§1) Cell culture/drug treatments: Cells were plated on 96-well plates in the appropriate cell culture media plus 10% FBS. […] Different plating densities and treatment times were explored to maximize the observable effects of the drugs.
Immunofluorescence: This included three steps: (1) Extraction of soluble (monomeric) tubulin by permeabilizing the cells with 0.5% Triton X-100 in a microtubule stabilizing buffer, in order to remove unpolymerized tubulin. (2) Fixation of intracellular protein with 4% formaldehyde. (3) Microtubule, DNA, and (optional) total cellular protein fluorescence labeling. […]
Image Analysis: Quantitative determination of microtubule polymer levels was performed using the methods described above. […] The nuclear image was dilated to produce a perinuclear ring mask, where cytoplasmic tubulin polymer was measured. […]
Quantitation of microtubule-associated intensity was carried out by summing the pixel intensities in the microtubule (MT) channel in the area covered by the perinuclear ring mask. […] From these measurements a MT polymerization index was calculated by normalizing the amount of MT fluorescence in a treated, “experimental” cell population, versus the amount of MT-associated fluorescence in an untreated, control cell population. […] Other methods of quantitation that were used are described below. […]

For experiment [2], the system named is microtubules. The experiment is described as follows: Preliminary time-course and 12 hour dose-response evaluations of microtubule polymer mass. Format: cell-based. The method, then:
as §1
(§2) Immunofluorescence: This included three steps: (1) Extraction of soluble (monomeric) tubulin by permeabilizing the cells with 0.5% Triton X-100 in a microtubule stabilizing buffer, in order to remove unpolymerized tubulin. (2) Fixation of intracellular protein with 4% formaldehyde. (3) Microtubule, DNA, and (optional) total cellular protein fluorescence labeling. Microtubule staining was carried out by a standard immunofluorescence procedures using a primary mouse monoclonal antibody (anti-tubulin IgG), and affinity purified polyclonal secondary antibody (ALEXA FLUOR® 488-conjugated anti-mouse IgG (Molecular Probes, Inc. Eugene, OR)). After the cells were stained, DNA was labeled with 10 microgram/ml Hoechst 33342.
(§3) For cells triple-stained with tetramethylrhodamine iodoacetate (TMRIA) (Molecular Probes), Hoechst 33342, and ALEXA FLUOR® 488 (tubulin), or cells double stained with Hoechst 33342 and ALEXA FLUOR® 488, an XF57 filter block was used.
Image Analysis: Quantitative determination of microtubule polymer levels was performed using the methods described above. For analysis, a binary nuclear mask was made by thresholding the Hoechst image. The nuclear image was dilated to produce a perinuclear ring mask, where cytoplasmic tubulin polymer was measured. The ring mask allowed measurement of average intensity levels associated with the microtubule image. […] Other methods of image analysis that were used are described below.
Quantitation of microtubule-associated intensity was carried out by summing the pixel intensities in the microtubule (MT) channel in the area covered by the perinuclear ring mask. This integrated pixel intensity was then divided by the actual area of the perinuclear ring mask to arrive at the mean or “average” pixel intensity in the region covered by the perinuclear ring. From these measurements a MT polymerization index was calculated by normalizing the amount of MT fluorescence in a treated, “experimental” cell population, versus the amount of MT-associated fluorescence in an untreated, control cell population. This polymerization index represents a fraction or percentage of MT polymerization or depolymerization, relative to the untreated controls. Other methods of quantitation that were used are described below.
In addition, preliminary time-course and 12 hour dose-response evaluations using paclitaxel, nocodazole, and vinblastine were performed.

The test system of experiment [3] is 3T3 cells. In words: Histogram distribution of microtubule-associated pixel intensities (OD variance). Conditions: individual 3T3 cells. The format is cell-based. An excerpt: Finally, histogram distribution of microtubule-associated pixel intensities in individual 3T3 cells was used to distinguish control cells from cells treated with nocodazole, paclitaxel, and vinblastine.

For experiment [4], the system named is microtubules. In words: Microtubule organization using concentric perinuclear ring masks. Format: cell-based. The conditions noted are these: for effect on microtubule organization / pattern of microtubule-associated fluorescence: similarity to other treatments: five sequential dilations of perinuclear ring mask, duplicate wells. The procedure: Domains were defined by five sequential dilations of a perinuclear ring mask, and measurements were made of the mean microtubule-associated intensity, the standard deviation of the microtubule-associated intensity, the mean cytoplasm to nucleus fluorescence intensity ratio, and cell-normalized microtubule fluorescence intensity. For each drug treatment condition, experiments were performed in duplicate.
Finally, the slope of the best linear fit of the microtubule associated fluorescence was calculated as a function of the angular dilation. This way, it was possible to compare the rate of change of these parameters as a function of domain position.

The test system of a further experiment is Fibroblasts. The experiment is described as follows: Cell-based analysis of microtubule-targeting drugs, anti-tubulin immunocytochemistry, fibroblasts. The method, then:
(§4) The mechanism of action of microtubule-targeting drugs was assessed in a cell component of interest field, represented as an image of tubulin-stained cells. Fibroblasts, epithelial cells,) and monocytes were left untreated ) or were treated with a variety of microtubule-targeting drugs. Cells were fixed and then stained with anti-tubulin immunocytochemistry, in order to determine how the different drugs affect morphological organization of microtubules.

The next experiment concerns epithelial cells. In words: Cell-based analysis of microtubule-targeting drugs, anti-tubulin immunocytochemistry, epithelial cells. The procedure: as §4
For a further experiment, the system named is monocytes. In words: Cell-based analysis of microtubule-targeting drugs, anti-tubulin immunocytochemistry, monocytes. The method, then:
as §4

Experiment [5] concerns tubulin. The conditions noted are these: single annular domain divided into 24 angular domains.
Experiment [6] has as its system tubulin. In words: Population analysis of spatial organization of tubulin with five annular domains. Conditions: five perinuclear annular domains; n>20 cells; duplicate.
Experiment [7] deals with microtubules. In words: Peaks and valleys of pixel intensity around the perinuclear ring mask (modal classification).
The test system of experiment [8] is microtubules. The experiment is described as follows: Microtubule organization using a single perinuclear ring mask and field based threshold measurements (spot count, spot area). The conditions noted are these: min-max plates. Format: cell-based. The method, then: as §1, §2, §3
Experiment [9] concerns tubulin. The experiment is described as follows: Multi-domain analysis of tubulin organization (angular, transverse, annular domains). The format is cell-based. Conditions: single cell. The procedure: Referring to FIG. 8, experiments were conducted to analyze tubulin organization in untreated (8A-D) and drug-treated (8E-H) fields of cells using angular (8B,F), transverse (8C, G) or annular domains (8D,H). […] For the purpose of analysis, cell boundaries were defined (8B-D, 8F-H) based on the reference component origin (which here is the nuclear perimeter). The component of interest field was thresholded to show the brightest pixels, and a single cell is shown for illustration purposes.
The spatial organization of intensity distribution within individual cells was then analyzed in an object of interest image, using annular domains (as in FIGS. […]). The data are shown in FIG. 9 as graphs of tubulin distribution in a single control (9A-C) and a vinblastine-treated cell (9D-F). Annular domains were created by sequential dilations of the nuclear perimeter. The position of the domain furthest away from the nucleus was given a value of one, and domain position increases in number with nuclear proximity. For each plot, measurements of tubulin distribution were normalized, by dividing the measurement obtained in a particular domain by the measurement obtained in the domain that is immediately adjacent to the nucleus. Intensity distribution within each domain was analyzed using a mathematical function to calculate the following: (1) the average pixel intensity (a measure proportional to tubulin mass) (9A, D); (2) texture difference moment (a measure proportional to tubulin periodicity) (9B, E); and (3) OD variance (a measure proportional to tubulin clustering) (9C,F). To determine the trends within each cell, data points were fitted with a linear function. […] For comparing cell populations under different treatment conditions, a number of cells in each condition can be analyzed as a sample, and the average slope within each sample used for statistical analysis.

Setting [10] is: nanomolar concentrations, 12 hour incubation.
[11] abbreviates: micromolar doses, 12 hour incubation.

For `COC(=O)Nc1nc2ccc(C(=O)c3cccs3)cc2[nH]1` [nocodazole], in the experiment with 3T3 cells [1] (5 micromolar), the cell-associated microtubule intensity entry is recorded as “significant decrease”. Further, in the experiment on microtubules [2] (setting [10]), the “effect on microtubules and cell division” value is on record as “inhibit cell division without necessarily inducing the net depolymerization of microtubules”; the microtubule polymer mass entry is given as “increase”. Besides, the “whether OD variance of the pixel intensity distribution distinguishes treated vs. control cell populations” value in the experiment with 3T3 cells [3] is “could distinguish”. Also, in the experiment on microtubules [4], the “slope of best linear fit of microtubule associated fluorescence vs domain position: similarity to other treatments” value is “most similar to the slope of cells treated with colchicine”, the “effect on microtubule organization” value is “microtubule disruption” and the “pattern of microtubule-associated fluorescence: similarity to other treatments” value is “resembled colchicine treated cells”. Also, the “morphological organization of microtubules” value (from here on “morphological organization”) with Fibroblasts is “depolymerized the microtubules, and led to a diffuse staining of tubulin throughout the cytoplasm”. In the experiment on epithelial cells, the “morphological organization” value is “induced microtubule depolymerization and led to diffuse staining of tubulin throughout the cell cytoplasm”. Besides, the “morphological organization” value in the experiment on monocytes was “led to microtubule depolymerization and led to diffuse tubulin staining”. Further, the “above threshold peaks in intensity distribution per cell, on average” value (“above threshold peaks … per cell, on average” for short) in the experiment on tubulin [5] is on record as 2 spots. Besides, the “standard deviation of mean tubulin fluorescence: similarity of tubulin organization to other treatments” value with tubulin [6] is given as “more similar to colchicine-treated cells”. Also, the “type of spatial distribution of fluorescent pixel intensities at the nuclear periphery (mono-modal, non-modal, multi-modal)” value (“type … (mono-modal, non-modal, multi-modal)” for short) with microtubules [7] is “Non-modal”.

As to `CC[C@]1(O)C[C@@H]2CN(CCc3c([nH]c4ccccc34)[C@@](C(=O)OC)(c3cc4c(cc3OC)N(C)[C@H]3[C@@](O)(C(=O)OC)[C@H](OC(C)=O)[C@]5(CC)C=CCN6CC[C@]43[C@@H]65)C2)C1` [vinblastine], in the experiment on microtubules [2] (setting [11]), the “effect on tubulin organization” value is “induced the formation of tubulin paracrystals” and the microtubule polymer mass result is given as “apparent increase”. Besides, the “effect on microtubules and cell division” value in the experiment with microtubules [2] (setting [10]) is “depolymerized microtubules and inhibited microtubule polymerization”. Also, in the experiment with microtubules [8], the “well average spot area” value was “significant decrease” and the “well normalized spot counts” value was “partly increasing”. Further, the “whether OD variance of the pixel intensity distribution distinguishes treated vs. control cell populations” value in the experiment with 3T3 cells [3] is reported as “could not distinguish”. Further, in the experiment on microtubules [4], the “effect on microtubule organization” value was “formation of microtubule bundles or aggregates in the cytoplasm”. The “morphological organization” value in the experiment on Fibroblasts was “depolymerized the microtubules and led to the formation of tubulin paracrystals”. Moreover, the “morphological organization” value in the experiment on epithelial cells was “disrupted the microtubules and led to the formation of tubulin paracrystals”. Further, in the experiment with monocytes, the “morphological organization” value was “intermediate effect between nocodazole and paclitaxel”. Also, the “distribution of brightest thresholded pixels over angular, transverse or annular domains” value in the experiment with tubulin [9] (FIG. 8) is on record as “broader distribution”. Also, in the experiment with tubulin [9] (FIG. 9), the “OD variance (tubulin clustering) as a function of domain position” value is “marked decrease” and the “texture difference moment (tubulin periodicity) as a function of distance from the nucleus” value is “centrifugal increase”. Besides, the “trend of average pixel intensity (tubulin mass) as a function of annular domain position” value with tubulin [9] (linear fit, FIG. 9) is reported as “positive slope”. Moreover, the “above threshold peaks … per cell, on average” value in the experiment on tubulin [5] was determined as 3 spots. The “type … (mono-modal, non-modal, multi-modal)” value with microtubules [7] is “Multimodal”.

As for `CC(=O)O[C@H]1C(=O)[C@@]2(C)[C@H]([C@H](OC(=O)c3ccccc3)[C@]3(O)C[C@H](OC(=O)[C@H](O)[C@@H](NC(=O)c4ccccc4)c4ccccc4)C(C)=C1C3(C)C)[C@]1(OC(C)=O)CO[C@@H]1C[C@@H]2O` [paclitaxel, Paclitaxel], the cell-associated microtubule intensity result in the experiment on 3T3 cells [1] (1 micromolar) is “significant increase”. For the same compound, in the experiment with microtubules [2] (12 hour dose-response, preliminary), the “quality of dose-response data” value is listed as “excellent dose response data”. Moreover, in the experiment on microtubules [8], the “well average spot area” value is given as “increased” and the “well normalized spot counts” value is “partly increased”. Besides, in the experiment with 3T3 cells [3], the “whether OD variance of the pixel intensity distribution distinguishes treated vs. control cell populations” value is recorded as “could distinguish”. For the same compound, in the experiment on microtubules [4], the “slope of best linear fit of microtubule associated fluorescence vs domain position: similarity to other treatments” value is given as “most similar to the slope of cells treated with vinblastine”, the “effect on microtubule organization” value is listed as “formation of microtubule bundles or aggregates in the cytoplasm” and the “pattern of microtubule-associated fluorescence: similarity to other treatments” value is reported as “resembled vinblastine treated cells”. In the experiment with Fibroblasts, the “morphological organization” value is “formation of microtubule bundles, and destroyed the focal organization of microtubules”. Also, the “morphological organization” value in the experiment with epithelial cells was “induced formation of microtubule bundles in association with the cell edge”. Besides, the “morphological organization” value in the experiment with monocytes is on record as “decreased microtubule staining in the nuclear region”. For the same compound, in the experiment on tubulin [5], the “above threshold peaks … per cell, on average” value was 4 spots. In addition, the “standard deviation of mean tubulin fluorescence: similarity of tubulin organization to other treatments” value in the experiment on tubulin [6] was “more similar to vinblastine-treated cells”. Further, the “type … (mono-modal, non-modal, multi-modal)” value in the experiment with microtubules [7] is given as “Multimodal”.
